Source: publication PMC8861050, “Design, synthesis and evaluation of novel 2-oxoindoline-based acetohydrazides as antitumor agents” (Scientific Reports, 2022)

How the values were obtained:
[1] = test system: SW620 (colon cancer); experiment: SRB cytotoxicity assay, SW620; type: cell-based; conditions: Homo sapiens, SW-620, 48 h incubation, mean ± SEM of 3 independent experiments
Description: (§1) Three human cancer cell lines: colon cancer (SW620), prostate cancer (PC3), and lung cancer (NCI-H23) were used for sceening the cytotoxicity of the compounds. The cancer cells were purchased from American Type Culture Collection (Manassas, VA, USA). Other reagents/media for cell culture were obtained from GIBCO (Grand Island, New York, USA). The testing cancer cells were culture in Dulbecco’s Modified Eagle Medium until confluence. Then, they were trypsinized and suspended at the level of 3 × 10^4 cells/mL of cell culture medium. On day 0, cancer cells were seeded at a volume of 180 µL/well of 96-well plates and incubated for 24 h at 37 °C in a 5% CO2 incubator. On day 1, 20 µL of various concentrations of testing compounds were added to each well of the 96-well plates. Chemicals were dissolved in dimethyl sulfoxide (DMSO, stock) and diluted in culture medium (1% DMSO) before adding to the culture. After 48 h incubation, the sulforhodamine B assay was used for cell density determination with slight modifications[22]–[26]. The Probits were used for the calculation of IC50 values. The reported IC50 were the averages of three independent screening (SD ≤ 10%)[27].
(§2) Two series of compounds synthesized (4a–p and 5a–f) were evaluated for their cytotoxicity against three human cancer cell lines, including SW620 (colon cancer), PC3 (prostate cancer), NCI-H23 (lung cancer), using SRB method as described previously[22] with slight modifications[23]–[26].

[2] = test system: PC3 (prostate cancer); experiment: SRB cytotoxicity assay, PC3; type: cell-based; conditions: Homo sapiens, 48 h incubation, mean ± SEM of 3 independent experiments
Description: as §1, §2

[3] = test system: NCI-H23 (lung cancer); experiment: SRB cytotoxicity assay, NCI-H23; type: cell-based; conditions: Homo sapiens, 48 h incubation, mean ± SEM of 3 independent experiments
Description: as §1, §2

[4] = Cytotoxicity on normal mesenchymal stem cells; type: cell-based; conditions: human bone marrow-derived mesenchymal stem cells; mean ± SEM; read-out: Cytotoxicity (IC50) MSCs
Description: Overally, 5-fluorinated compounds (4i–p and 5d–f) were slightly more cytotoxic than non-fluorinated ones (4a–h, 5a–c). For compounds in series 4a–p, it was observed that, electron-releasing substituents (–OCH3, OH) were generally better than electron-withdrawing groups (–Cl) for cytotoxicity. Especially, compounds with 2-OH substituents produced the best cytotoxicity. The addition of either 4-OCH3 or 3-allyl groups further enhanced cytotoxicity of the related compounds (4g, 4h and 4o, 4p).

[5] = test system: U937 human lymphoma cells; experiment: Cell cycle analysis (PI, flow cytometry); type: cell-based; conditions: 50 µM, 24 h
Description: U937 human lymphoma cells (5 × 10^5/mL per well) were plated in 6-well culture plates and allowed to grow for 24 h. In our first experiment, we examined the effects of 4f, 4h, 4n, 4o, 4p, and PAC-1 on cell cycles at 50 µM. In the second experiment, we examined the dose-dependent effect of 4o at 5, 10, and 30 µM and PAC-1 at 30 µM on cell cycles. The cells were treated with compounds for 24 h, and then harvested. The harvested cells were washed twice with ice-cold PBS, fixed in 75% ice-cold ethanol, and stained with propidium iodide (PI) in the presence of RNase at room temperature for 30 min. The stained cells were analyzed for DNA content using a FACScalibur flow cytometer (BD Biosciences, San Jose, CA, USA) and the data were processed using Cell Quest Pro software (BD Biosciences).
(§3) Figure 3 Cell cycle analysis after treatment with some compounds. U937 human lymphoma cells were treated with compounds (50 µM) for 24 h. The harvested cells were stained with propidium iodide (PI) in the presence of RNase and then were analyzed for DNA content by using flow cytometry. Ten thousand cells were acquired (n = 3). UN untreated, VH vehicle (DMSO. 0.1%). Representative histograms (A) and bar graphs (B) are shown. p values were calculated using one-way ANOVA in GraphPad Software (San Diego, CA, USA). *p < 0.01 vs VH control.
as §3, with “Figure 4” for “Figure 3”, “analysis under” for “analysis after”, “with different concentrations of compound 4o.” for “with some compounds.”, “with compound 4o at 5, 10 and 30 µM or PAC-1 (30” for “with compounds (50”

[6] = test system: U937 cells; experiment: Annexin V-FITC/PI apoptosis assay; type: cell-based, human; conditions: U937, 50 µM, 24 h
Description: The Annexin V-FITC/PI dual staining assay was used to determine the percentage of apoptotic cells. U937 cells (5 × 10^5/mL per well) were plated in 6-well culture plates and allowed to grow for 24 h. In our first experiment, we examined the effects of 4f, 4h, 4n, 4o, 4p, and PAC-1 on apoptosis at 50 µM. In the second experiment, we examined the dose-dependent effect of 4o at 5, 10, and 30 µM and PAC-1 at 30 µM on apoptosis. The cells were treated with compounds for 24 h, and then harvested. The harvested cells were washed twice with ice-cold PBS and incubated in the dark at room temperature in […] of 1 × binding buffer containing 1 µL Annexin V-FITC and […] PI. After 15 min incubation, cells were analyzed for percentage undergoing apoptosis using a FACScalibur flow cytometer (BD Biosciences). The data were processed using Cell Quest Pro software (BD Biosciences).
Figure 5 Apoptosis (Annexin V/PI) analysis of cells after treatment with some compounds. U937 cells were treated with compounds (50 µM) for 24 h. The harvested cells were incubated with Annexin V-FITC and PI and analyzed by using flow cytometry. Ten thousand cells were acquired (n = 3). UN untreated, VH vehicle (DMSO. 0.1%). Representative dot plots (A). Live cells, left down in dot plot. Early apoptotic cells, right down. Necrotic cells, left up, Late apoptotic cells, right up. Bar graph of late apoptotic cells (B). p values were calculated using one-way ANOVA in GraphPad Software (San Diego, CA, USA). *p < 0.01 vs VH control. TEXT PRINTED IN THE PICTURE: (A) PAC-1: 10.40%; 29.30%; 12.70% | (A) 4f: 0.52%; 6.05%; 5.41% | (A) 4h: 0.89%; 13.20%; 7.67% | (A) 4n: 0.44%; 6.83%; 5.73% | (A) 4o: 0.67%; 17.30%; 8.17% | (A) 4p: 1.60%; 13.00%; 5.86% DOUBTS OF THE COPYIST ABOUT THIS PICTURE: The quadrant percentages are in small italic print over the dot plots, so 3, 5, 6, 8 and 9 cannot always be told apart. All values given are best readings. / PAC-1: 10.40%, 29.30% and 12.70% are best readings (29.30 could be 28.30) / 4f: 0.52%, 6.05% and 5.41% are best readings (6.05 could be 6.06 or 8.05) / 4h: 0.89%, 13.20% and 7.67% are best readings (0.89 could be 0.86 or 0.69) / 4n: 0.44%, 6.83% and 5.73% are best readings (6.83 could be 6.63 or 6.88) / 4o: 0.67%, 17.30% and 8.17% are best readings (8.17 could be 6.17) / 4p: 1.60%, 13.00% and 5.86% are best readings (5.86 could be 5.88 or 5.66) / The picture prints no measure for the percentages; only their quadrant position tells them apart. They are listed upper left, upper right, lower right. / The plots UN (0.70%, 2.31%, 3.03%) and VH (1.75%, 2.43%, 3.57%) are controls, not substances, and are left out of the lines.
Figure 6 Apoptosis (Annexin V/PI) analysis of cells after treatment with different concentrations of compound 4o. U937 cells were treated with compound 4o at 5, 10 and 30 µM or PAC-1 (30 µM) for 24 h. The harvested cells were incubated with Annexin V-FITC and PI and analyzed by using flow cytometry. Ten thousand cells were acquired (n = 3). UN untreated, VH vehicle (DMSO. 0.1%). Representative dot plots (A). Live cells, left down in dot plot. Early apoptotic cells, right down. Necrotic cells, left up, Late apoptotic cells, right up. Bar graph of late apoptotic cells (B). p values were calculated using one-way ANOVA in GraphPad Software (San Diego, CA, USA). *p < 0.01 vs VH control.

| SMILES | IC50 [1] [µM] | IC50 [2] [µM] | IC50 [3] [µM] | IC50 [4] [µM] | Effect on cell cycle distribution [5] | Induction of apoptosis (Annexin V-FITC/PI) [6] | melting point [°C] | Apoptotic effects compared among the representative compounds [6] |
| --- | --- | --- | --- | --- | --- | --- | --- | --- |
| O=C(CN1C(=O)Cc2ccccc21)N/N=C/c1ccccc1O [Compound 4f, (E)-N'-(2-Hydroxybenzylidene)-2-(2-oxoindolin-1-yl)acetohydrazide] | 4.77 ± 0.53 | 7.34 ± 0.04 | 4.3 ± 0.41 | 23.2 ± 0.26 | accumulated U937 cells in the S phase | induced early, and more substantially, late apoptosis | 173 to 174 |  |
| C=CCc1cccc(/C=N/NC(=O)CN2C(=O)Cc3ccccc32)c1O [Compound 4h, (E)-N'-(3-Allyl-2-hydroxybenzylidene)-2-(2-oxoindolin-1-yl)acetohydrazide] | 4.21 ± 0.17 | 5.65 ± 0.19 | 3.05 ± 0.22 | 15.1 ± 0.93 | accumulated U937 cells in the S phase | induced early, and more substantially, late apoptosis | 185 to 186 | more prominent |
| O=C(CN1C(=O)Cc2cc(F)ccc21)N/N=C/c1ccccc1O [Compound 4n, (E)-N'-(2-Hydroxybenzylidene)-2-(5-fluoro-2-oxoindolin-1-yl)acetohydrazide] | 4.72 ± 0.75 | 5.08 ± 0.26 | 3.7 ± 0.4 | 21 ± 0.51 | accumulated U937 cells in the S phase | induced early, and more substantially, late apoptosis | 173 to 174 |  |
| C=CCc1cccc(/C=N/NC(=O)CN2C(=O)Cc3cc(F)ccc32)c1O [Compound 4p, (E)-N'-(3-Allyl-2-hydroxybenzylidene)-2-(5-fluoro-2-oxoindolin-1-yl)acetohydrazide] | 3.65 ± 0.23 | 5.11 ± 0.08 | 2.7 ± 0.15 | 15.7 ± 0.46 | accumulated U937 cells in the S phase | induced early, and more substantially, late apoptosis | 194 to 195 | more prominent |
